Experimental data as given in patent US11666562B2, “Ilaprazole for inhibiting the release of enveloped viruses from cells” (Northwestern University, priority 2020, dated 2023).
Where two headings read alike, the source gives them in different places.

How the values were obtained:
[1] = system: Vero cells; assay: Vero cell viability/toxicity (96 AQueous One Solution / WST-1); format: cell-based
Method: (§1) Drug potency and cell toxicity. EC50 calculations were determined by using AAT Bioquest's EC50 calculator. Cell toxicity at different concentrations of drugs as indicated was determine using the Cell Proliferation Reagent WST-1 (Roche Diagnostics) or cellular 96® Aqueous One Reagent viability reagent according to manufacturer's instructions. For 293T cells, the concentration of DMSO was 0.2% or less and assays were carried out with DMEM with 10% serum. Cell toxicity experiments were repeated twice.

[2] = system: HSV-1; assay: Release of HSV-1 from infected Vero cells, plaque assay; format: cell-based, Herpes simplex virus-1 (Kos strain); settings: for EC50: Human alphaherpesvirus 1; for Duration of inhibition of HSV-1 release after a single application: data not shown
Method: We infected Vero cells with HSV-1 and HSV-2 for two hours at a multiplicity of infection (MOI in pfu\cell) of 0.1 to assay the antiviral activity of tenatoprazole. Following infection, cells were treated with different concentrations of tenatoprazole. After 24 or 48 h the media fractions were collected and released virus titers were determined by standard plaque assays (30). Tenatoprazole caused a 3-log drop of HSV-1 and 4-5 log drop of HSV-2 in released infectious virus from Vero cells at 24 hours after infection in a dose dependent manner (Table 1, shown in FIG. 5, columns 2 and 3) with calculated EC50's ranging from 48-80 μM. Total virus titer was also determined to differentiate between virus released into the media and infectious particles present in cell lysate. […] The concentrations of tenatoprazole that blocked virus release were nontoxic to Vero cells as determined by a 96® AQueous One Solution cell proliferation assay reagent (Table 1, shown in FIG. 5, column 7). Taken together, tenatoprazole inhibited levels of both released and infectious virus particles without affecting cell viability at effective concentrations.
Herpesvirus infection of Vero cells. Vero cells (0.8×10^6 cells/well of a 6-well plate) were infected with HSV-1 or HSV-2 at a MOI of 0.1 pfu/cell in DMEM with 1% serum for two hours in the C02 incubator at 37° C. In one experiment looking at the effect of tenatoprazole on HSV-2 release from cells 24 and 48 h a MOI of 3 pfu/cell was used. The cell supernatants were aspirated and replaced with 1 ml (24 h) or 2 ml (48 h and 72 h) of DMEM with 1% serum with DMSO or different concentrations of drug (tenatoprazole, ilaprazole, or analogs) dissolved in DMSO. After 24 or 48 h incubation, the cell supernatant was collected and frozen at −80° C. Virus titer in the cell media fraction was determined by standard plaque assays using 10-fold serial dilutions of cell supernatants of Vero cells and incubated for 48 h after which cells were fixed and stained to count the plaques (22). For determination of total virus (extracellular+cytoplasmic), virus infected cells were incubated for 24 h with and without drug presence, then the plate of cells were subjected to 3 cycles of freeze/thawing (−80° C./37° C.) 30 min each prior to collecting the supernatant after centrifugation for measurement of total virus titer. Virus titer was measured by standard plaque assay as above.
as §1

[3] = system: HSV-2; assay: Transmission electron microscopy of HSV-2 infected Vero cells, location of virus particles; format: cell-based, Herpes simplex virus-2(A/B-G); settings: 24 h, 80 cells
Method: Cellular location of tenatoprazole inhibition. We next imaged herpesvirus infected-Vero cells using transmission electron microscopy to determine the site of inhibition of release of virus and whether it was similar to observations of HIV-1 release from 293T cells. Vero cells grown on glass cover slips were infected with HSV-2 at MOI of 0.1 pfu/cell for 2 h and then treated for 24 h with 105 μM tenatoprazole or vehicle control. In the no drug control, virus particles were in both the nucleus and cytoplasm near the cell surface (FIG. 2A). In the tenatoprazole-treated cells the cytosol of all of the intact cells was largely devoid of virus particles (FIG. 2B). Instead, we observed large pockets of granular material accumulated in the nucleus and immature virus particles inside the nucleus and lining the inside of the nuclear membrane (inset, B).
We next carried out a transmission electron microscopic examination of cells infected with HSV-2 at a MOI 0.1 in the presence and absence of 18 μM ilaprazole to determine if this drug causes the accumulation of virus particles in the nucleus of cells similar to tenatoprazole. Without drug, we observe particles in the cytoplasm and in the nucleus (FIGS. 4A & B), in the presence of drug little or no viral particles are found in the cytoplasm (FIGS. 4C & D). In both heavily infected cells (FIGS. 4A & C) and mildly infected cells (FIGS. 4B & D), treatment lead to particles being detected in the nucleus and arrayed along the nuclear membrane but lacking in the cytosol. […] Similar results were obtained with HSV-1 infected cells (FIG. 4E-H). Particles are seen in both the cytoplasm and nucleus in the absence of drug and just in the nucleus in the presence of drug. […] The lower total infectious virus detected in Table 3 (FIG. 7) is consistent with blockage of the virus passaging out of the nucleus into the cytoplasm where membranes are exchanged and virus becomes infectious.
Transmission electron Microscopy. Vero cells on glass cover slips were infected with HSV-2 at a MOI of 0.1 for two hours. Then 105 μM of tenatoprazole or 18 μM Ilaprazole was added and cells incubated for 24 hours. Tissue samples were fixed in 0.1 M sodium cacodylate buffer pH 7.3 containing 2% paraformaldehyde and 2.5% glutaraldehyde and post-fixed with 2% osmium tetroxide in unbuffered aqueous solution. The samples were rinsed with distilled water, en bloc stained with 3% uranyl acetate, rinsed with distilled water, dehydrated in ascending grades of ethanol, transitioned with propylene oxide, embedded in the resin mixture of Embed 812 kit and cured in a 60° C. oven. Samples were sectioned on a Leica Ultracut UC6 ultramicrotome. 1 μm thick sections were collected and stained with Toluidine Blue O and 70 nm sections were collected on 200 mesh copper grids; thin sections were stained with uranyl acetate and Reynolds lead citrate. Transmission electron microscopy (TEM) was performed on a FEI Tecnai Spirit G2.

[4] = Vero cells, MOI 0.1, 24 h, read-out: EC50, inhibition of HSV-1 release

Row | Compound | Cell toxicity to Vero cells ([1]; at concentrations that block virus release, 24 h) | EC50 [2, 4] [µM] | Drop in released infectious HSV-1 ([2]; Vero cells, 24 hours after infection, dose dependent) [log] | Duration of inhibition of HSV-1 release after a single application [2] | Average number of virus particles in the nucleus ([3]; HSV-2, 105 μM tenatoprazole) [particles] | Virus particles in the cytoplasm ([3]; HSV-2, 105 μM tenatoprazole) | Cell toxicity to Vero cells [1] | EC50 ([2]; Vero cells, 72 h after a single application (Table 3A columns 2 & 4, HSV-1), read-out: 72 h EC50, inhibition of virus release) [µM] | Total infectious virus (released plus inside cells), HSV-1 ([2]; Vero cells, freeze/thaw lysate) | Average number of virus particles in the nucleus ([3]; HSV-2, 18 μM ilaprazole) [particles] | Range of number of virus particles in the nucleus ([3]; HSV-2, 18 μM ilaprazole) | Virus particles in the cytoplasm ([3]; HSV-2, 18 μM ilaprazole) [particles]
1 | COc1ccc2[nH]c([S+]([O-])Cc3ncc(C)c(OC)c3C)nc2n1 (centres unmarked) [Tenatoprazole] | nontoxic | 48 to 80 | 3 | began to fall off after 48 h | 31 | did not detect virus particles | – | – | – | – | – | –
2 | COc1ccnc(C[S+]([O-])c2nc3ccc(-n4cccc4)cc3[nH]2)c1C (centres unmarked) [Ilaprazole, 2-[(4-methoxy-3-methylpyridin-2-yl)methylsulfinyl]-6-pyrrol-1-yl-1H-benzimidazole] | – | 3 to 9 | – | Significant inhibition was still observed at 4 and 5 days | – | – | did not observe cell toxicity | 0.8 to 1.2 | significant drop in total virus | 31 | 9-56 particles | 0
